# From the supplement of paper PMC10307832
# Compound: CC(C)C[C@H](NC(=O)[C@H](CCc1ccccc1)NC(=O)CN1CCOCC1)C(=O)N[C@@H](Cc1ccccc1)C(=O)N[C@@H](CC(C)C)C(=O)[C@@]1(C)CO1 [Carfilzomib] + Cc1nc(NC(=O)N2CCC[C@H]2C(N)=O)sc1-c1ccnc(C(C)(C)C(F)(F)F)c1 [Alpelisib] (partner 2 µM)
# Assay: relative viability (nuclei count vs DMSO), 5 days (fraction); higher = more cells survive
# Conditions: first compound 0.001 µM
# Procedure, shortened: (§1)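 Lung cancer cell lines in 1536-well plates got either a single drug or a fixed anchor-drug dose together with five library-drug doses (not always all listed) in √10 steps, by pin tool, on the day after seeding. Nuclei were counted after 5 days, and relative viability is the treated-to-vehicle ratio of nuclei counts. Values are medians of duplicate plates.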
row,Cell Line,relative viability
1,201T,0.986
2,A549,0.652
3,A-427,1.07
4,ABC-1,1.16
5,BEN,1.04
6,COR-L23,0.735
7,COR-L 105,1.04
8,Calu-6,0.93
9,EBC-1,0.7
10,EKVX,0.845
11,EMC-BAC-2,0.699
12,EPLC-272H,0.884
13,H3255,0.749
14,HARA,0.79
15,HCC-15,0.855
16,HCC-44,0.786
17,HCC-78,0.327
18,HCC-366,0.402
19,HCC-827,0.943
20,HOP-62,0.935
21,IA-LM,0.747
22,NCI-H358,1.21
23,NCI-H1395,0.995
24,NCI-H1563,1.04
25,NCI-H1944,0.776
26,NCI-H2170,0.801
27,SK-MES-1,0.867

# Same assay, conditions: first compound 0.003162 µM
row,Cell Line,relative viability
1,201T,1.05
2,A549,0.754
3,A-427,1.07
4,ABC-1,1.09
5,BEN,1.22
6,CAL-12T,1.38
7,COR-L23,0.879
8,COR-L 105,1.16
9,Calu-6,1.02
10,EBC-1,0.792
11,EKVX,1.06
12,EMC-BAC-2,0.733
13,EPLC-272H,1.03
14,H3255,0.886
15,HARA,0.857
16,HCC-15,0.914
17,HCC-44,0.785
18,HCC-78,0.45
19,HCC-366,0.518
20,HCC-827,0.948
21,HOP-62,1.12
22,IA-LM,0.821
23,LK-2,1.59
24,NCI-H358,1.19
25,NCI-H1395,1.27
26,NCI-H1563,0.866
27,NCI-H1944,0.877
28,NCI-H2170,0.775
29,SK-MES-1,1.04

# Same assay, conditions: first compound 0.01 µM
row,Cell Line,relative viability
1,201T,0.983
2,A549,0.755
3,A-427,1.06
4,ABC-1,0.636
5,BEN,1.12
6,CAL-12T,1.3
7,COR-L23,0.709
8,COR-L 105,0.85
9,Calu-6,0.838
10,EBC-1,0.259
11,EKVX,0.953
12,EMC-BAC-2,0.757
13,EPLC-272H,0.83
14,H3255,0.723
15,HARA,1.07
16,HCC-15,0.86
17,HCC-44,0.861
18,HCC-78,0.362
19,HCC-366,0.413
20,HCC-827,0.945
21,HOP-62,0.986
22,IA-LM,0.633
23,LK-2,1.1
24,NCI-H358,0.85
25,NCI-H1395,1.19
26,NCI-H1563,0.877
27,NCI-H1944,0.776
28,NCI-H2170,0.875
29,SK-MES-1,0.992

# Same assay, conditions: first compound 0.03162 µM
row,Cell Line,relative viability
1,201T,1.07
2,A549,0.0509
3,A-427,0.699
4,ABC-1,0.246
5,BEN,0.83
6,CAL-12T,0.619
7,COR-L23,0.0481
8,COR-L 105,0.566
9,Calu-6,0.174
10,EBC-1,0.112
11,EKVX,0.837
12,EMC-BAC-2,0.758
13,EPLC-272H,0.141
14,H3255,0.494
15,HARA,0.0576
16,HCC-15,0.506
17,HCC-44,0.705
18,HCC-78,0.287
19,HCC-366,0.285
20,HCC-827,0.934
21,HOP-62,0.118
22,IA-LM,0.151
23,LK-2,0.263
24,NCI-H358,0.153
25,NCI-H1395,0.335
26,NCI-H1563,0.812
27,NCI-H1944,0.938
28,NCI-H2170,0.659
29,SK-MES-1,0.782

# Same assay, conditions: first compound 0.1 µM
row,Cell Line,relative viability
1,201T,0.893
2,A549,0.04
3,A-427,0.1
4,ABC-1,0.267
5,BEN,0.499
6,CAL-12T,0.105
7,COR-L23,0.052
8,COR-L 105,0.246
9,Calu-6,0.102
10,EBC-1,0.13
11,EKVX,0.363
12,EMC-BAC-2,0.326
13,EPLC-272H,0.106
14,H3255,0.154
15,HARA,0.0587
16,HCC-15,0.0942
17,HCC-44,0.134
18,HCC-78,0.157
19,HCC-366,0.0174
20,HCC-827,0.357
21,HOP-62,0.0839
22,IA-LM,0.0147
23,LK-2,0.255
24,NCI-H358,0.13
25,NCI-H1395,0.356
26,NCI-H1563,0.569
27,NCI-H1944,0.304
28,NCI-H2170,0.24
29,SK-MES-1,0.162

# Compound: CC(C)C[C@H](NC(=O)[C@H](CCc1ccccc1)NC(=O)CN1CCOCC1)C(=O)N[C@@H](Cc1ccccc1)C(=O)N[C@@H](CC(C)C)C(=O)[C@@]1(C)CO1 [Carfilzomib] + O=C(c1cc(Cc2n[nH]c(=O)c3ccccc23)ccc1F)N1CCN(C(=O)C2CC2)CC1 [Olaparib] (partner 8 µM)
# Assay: as above
# Conditions: first compound 0.001 µM
# Procedure, shortened: as §1
row,Cell Line,relative viability
1,201T,0.83
2,A549,0.344
3,A-427,0.782
4,ABC-1,0.768
5,BEN,1.02
6,CAL-12T,0.765
7,COR-L23,0.392
8,COR-L 105,0.704
9,Calu-6,0.52
10,ChaGo-K-1,0.447
11,EBC-1,0.721
12,EKVX,0.854
13,EMC-BAC-2,0.484
14,EPLC-272H,0.825
15,H3255,0.565
16,HARA,1.25

row,Cell Line,relative viability
1,HCC-15,0.73
2,HCC-44,1.07
3,HCC-78,0.733
4,HCC-366,0.364
5,HCC-827,0.671
6,HOP-62,0.399
7,IA-LM,1.06
8,LK-2,0.646
9,NCI-H358,0.639
10,NCI-H522,0.586
11,NCI-H1648,1.07
12,NCI-H1650,0.811
13,NCI-H1944,0.438
14,NCI-H2170,0.6
15,NCI-H2342,0.424
16,SK-MES-1,0.709

# Same assay, conditions: first compound 0.003162 µM
row,Cell Line,relative viability
1,201T,0.838
2,A549,0.301
3,A-427,0.827
4,ABC-1,0.846
5,BEN,1.29
6,CAL-12T,0.744
7,COR-L23,0.435
8,COR-L 105,0.735
9,Calu-6,0.628
10,ChaGo-K-1,0.409
11,EBC-1,0.63
12,EKVX,0.908
13,EMC-BAC-2,0.454
14,EPLC-272H,0.864
15,H3255,0.609
16,HARA,0.943
17,HCC-15,0.771

row,Cell Line,relative viability
1,HCC-44,0.975
2,HCC-78,0.881
3,HCC-366,0.39
4,HCC-827,0.619
5,HOP-62,0.397
6,IA-LM,0.779
7,LK-2,0.661
8,NCI-H358,0.692
9,NCI-H522,0.778
10,NCI-H1395,0.516
11,NCI-H1648,0.563
12,NCI-H1650,0.855
13,NCI-H1944,0.513
14,NCI-H2170,0.674
15,NCI-H2342,0.541
16,SK-MES-1,0.847
17,SW 900,0.756

# Same assay, conditions: first compound 0.01 µM
row,Cell Line,relative viability
1,201T,0.856
2,A549,0.405
3,A-427,0.749
4,ABC-1,0.348
5,BEN,1.18
6,CAL-12T,0.702
7,COR-L23,0.36
8,COR-L 105,0.716
9,Calu-6,0.504
10,ChaGo-K-1,0.392
11,EBC-1,0.191
12,EKVX,1.02
13,EMC-BAC-2,0.561
14,EPLC-272H,0.302
15,H3255,0.668
16,HARA,1.2
17,HCC-15,0.75

row,Cell Line,relative viability
1,HCC-44,0.985
2,HCC-78,0.844
3,HCC-366,0.362
4,HCC-827,0.712
5,HOP-62,0.443
6,IA-LM,0.738
7,LK-2,0.86
8,NCI-H358,0.583
9,NCI-H522,0.694
10,NCI-H1395,0.428
11,NCI-H1648,0.745
12,NCI-H1650,0.723
13,NCI-H1944,0.441
14,NCI-H2170,0.588
15,NCI-H2342,0.499
16,SK-MES-1,0.775
17,SW 900,0.323

# Same assay, conditions: first compound 0.03162 µM
row,Cell Line,relative viability
1,201T,0.907
2,A549,0.0248
3,A-427,0.271
4,ABC-1,0.324
5,BEN,1.03
6,CAL-12T,0.265
7,COR-L23,0.0646
8,COR-L 105,0.465
9,Calu-6,0.0906
10,ChaGo-K-1,0.172
11,EBC-1,0.0599
12,EMC-BAC-2,0.411
13,EPLC-272H,0.0584
14,H3255,0.402
15,HARA,0.0637
16,HCC-15,0.551
17,HCC-44,1.03
18,HCC-78,0.552
19,HCC-366,0.311
20,HCC-827,0.643
21,IA-LM,0.0714
22,LK-2,0.149
23,NCI-H358,0.0792
